{
  "source": "patent US8785452B2",
  "about": "“Anti-infective compounds” (priority 2008, dated 2014)",
  "test_system": "M. tuberculosis clinical isolates",
  "assay_type": "cell-based, Mycobacterium tuberculosis",
  "conditions": "multi-drug-resistant and extensive-drug-resistant isolates",
  "data": [
    {"molecule": "Cc1cccn2c(=O)c(C=O)c(Nc3cccc(Cl)c3)nc12", "note": "[compound 133, 2-(3-Chlorophenylamino)-9-methyl-4-oxo-4H-pyrido[1,2-a]pyrimidine-3-carbaldehyde]", "values": [
      {"measurement": "activity (MIC values) against MDR and XDR clinical isolates, in words", "result": "within the micromolar range"}
    ]}
  ]
}
